Reference: US7060733B2, “Methods for treating pancreatitis with curcumin compounds and inhibitors of reactive oxygen species” (The Regents of the University of California, priority 2002, dated 2006)

Experiments:
NF-κB = assay: Curcumin and N-acetylcysteine alone and in combination, NF-κB activation in CCK-stimulated acinar cells; assay type: cell-based, rat; conditions: 0.1 μM CCK
Description: To measure the effects of curcumin compounds and ROS inhibitors, EMSAs and nuclear protein extractions were conducted as provided above. […] EMSAs for NF-κB activation were performed on nuclear proteins extracted from each sample.

NF-κB and AP-1 = conditions: antioxidant; cited from earlier work

Molecule	inhibition of NF-κB activation in CCK-stimulated acinar cells (NF-κB; N-acetylcysteine 10 μM alone)	NF-κB activation (NF-κB and AP-1)	inhibition of NF-κB activation in CCK-stimulated acinar cells (NF-κB; curcumin 50 μM with N-acetylcysteine 10 μM)
CC(=O)N[C@@H](CS)C(=O)O [N-acetylcysteine, reference compound]	very little inhibition	inhibit	–
curcumin and N-acetylcysteine	–	–	synergistic effect
